{"source": "patent US9708247B2", "about": "“Modulators of the eIF2alpha pathway” (The Regents of the University of California, priority 2013, dated 2017)", "format_in_all_cases": "cell-based, human", "key": {"global translation": {"system": "global translation", "experiment": "Metabolic labeling (35S-methionine incorporation) in HEK293T cells", "details": "100 nM thapsigargin alone", "protocol": "HEK293T cells were seeded on 12 well plates, allowed to recover overnight and treated for the indicated times with the indicated compounds. The cells were subsequently switched to media lacking methionine and cysteine supplemented with the indicated compounds and 50 μCi of ^35S-methionine (Perkin Elmer) for 20 min. Cells were lysed by addition of SDS-PAGE loading buffer. Lysates were sonicated and equal amounts were loaded on SDS-PAGE gels (BioRad). The gel was dried and radioactive methionine incorporation was detected by exposure to a phosphor-screen and visualized with a Typhoon 9400 Variable Mode Imager (GE Healthcare)."}, "ATF4 luciferase reporter": {"system": "ATF4 luciferase reporter", "experiment": "ATF4 luciferase reporter assay (Cell-luc) in HEK293T cells", "details": "ER stressor alone, 384 well format"}, "eIF2α (p-Ser51)": {"system": "eIF2α (p-Ser51)", "experiment": "AlphaScreen SureFire eIF2α(p-Ser51) assay in U2OS cells", "details": "U2OS cells, ER stressor alone, after 120 minutes", "protocol": "U2OS cells were plated on 96 well plates and left to recover overnight. Cells were treated with either with 2 μg/ml tunicamycin or 100 nM thapsigargin in the presence or absence of 100 nM ISRIB or with ISRIB alone for the indicated and the level of eIF2α phosphorylation was determined using the AlphaScreen SureFire eIF2α(p-Ser51) Assay kit (Perkin Elmer) following the manufacturer's recommendations. Plates were read in an Envision Xcite Multilabel Reader using the standard Alpha Screen settings."}}, "data": [{"smiles": "C/C=C(/C)C(=O)O[C@H]1C(C)=C2[C@H]([C@@H]1OC(=O)CCCCCCC)[C@@](C)(OC(C)=O)C[C@H](OC(=O)CCC)[C@@]1(O)[C@H]2OC(=O)[C@@]1(C)O", "note": "[Thapsigargin, thapsigargin, reference compound]", "values": [{"measurement": "drop in translation", "setting": "global translation", "result": 40, "unit": "%"}, {"measurement": "induction in luciferase activity", "setting": "ATF4 luciferase reporter", "result": 4.9, "unit": "fold"}, {"measurement": "increase of eIF2α phosphorylation", "setting": "eIF2α (p-Ser51)", "result": 7, "unit": "fold"}]}]}
